# Source: US20100063047A1 (KALYPSYS, INC., priority 2008, published 2010)
# Biological target: T1, human H1 (Homo sapiens, UniProt P35367)
# T1 construct: host or cells: CHO-K1, also expressing mitochondrion-targeted aequorin
# Experiment: In vitro histamine H1 receptor cell-based aequorin bioluminescence antagonist assay
# Conditions: CHO-K1 cells expressing human H1 and aequorin; histamine at EC80; read-out: H1 Antagonist EC50
# Procedure: In vitro Histamine Receptor Cell-Based Assays
# The cell-based assays utilize an aequorin dependent bioluminescence signal. Doubly-transfected, stable CHO—K1 cell lines expressing human H1 or H4, mitochondrion-targeted aequorin, and (H4 only) human G protein Gα16 are obtained from Perkin-Elmer. Cells are maintained in F12 (Ham's) growth medium, containing 10% (vol./vol.) fetal bovine serum, penicillin (100 IU/mL), streptomycin (0.1 mg/mL), zeocin (0.25 mg/mL) and geneticin (0.40 mg/mL). Cell media components are from Invitrogen, Inc. One day prior to assay, the growth medium is replaced with the same, excluding zeocin and geneticin.
# For assay preparation, growth medium is aspirated, and cells are rinsed with calcium-free, magnesium-free phosphate-buffered saline, followed by two to three minute incubation in Versene (Invitrogen, Inc.) at 37° C. Assay medium (DMEM:F12 [50:50], phenol-red free, containing 1 mg/mL protease-free bovine serum albumin) is added to collect the released cells, which are then centrifuged. The cell pellet is re-suspended in assay medium, centrifuged once more, and re-suspended in assay medium to a final density of 5×10^6 cells/mL. Coelenterazine-h dye (500 μM in ethanol) is added to a final concentration of 5 μM, and mixed immediately. The conical tube containing the cells is then wrapped with foil to protect the light-sensitive dye. The cells are incubated for four hours further at room temperature (approximately 21° C.) with end-over-end rotation to keep them in suspension.
# Just before assay, the dye-loaded cells are diluted to 0.75×10^6 cells/mL (H1 receptor) or 1.5×10^6 cells/mL (H4 receptor) with additional assay medium. Cells are dispensed to 1536 well micro-titer plates at 3 μL/well. To assay receptor antagonism, 60 nl of 100× concentration test compounds in 100% dimethyl sulfoxide (DMSO) are dispensed to the wells, one compound per well, by passive pin transfer, and the plates are incubated for 15 minutes at room temperature. […] The pipette dispenses 3 μL/well of agonist (histamine, at twice the final concentration, where final concentration is a previously determined EC80) in assay medium, with concurrent bioluminescence detection. Agonist activity of test compounds is excluded by separate assays that measure response to test compounds immediately, without added histamine agonist.
# CCD image capture on the Lumilux includes a 5 second baseline read prior to agonist addition, and generally a 40 second read per plate after agonist addition. A decrease in bioluminescence signal (measured either as area-under-the-curve, or maximum signal amplitude minus minimum signal amplitude) correlates with receptor antagonism in a dose dependent manner. The negative control is DMSO lacking any test compound. For antagonist assays, the positive controls are diphenhydramine (2-Diphenylmethoxy-N,N-dimethylethylamine, 10 μM final concentration, H1 receptor) or JNJ7777120 (1-[(5-Chloro-1H-indol-2-yl)carbonyl]-4-methyl-piperazine, 10 μM final concentration, H4 receptor). Efficacy is measured as a percentage of positive control activity.
# T1 sequence (P35367 whole entry): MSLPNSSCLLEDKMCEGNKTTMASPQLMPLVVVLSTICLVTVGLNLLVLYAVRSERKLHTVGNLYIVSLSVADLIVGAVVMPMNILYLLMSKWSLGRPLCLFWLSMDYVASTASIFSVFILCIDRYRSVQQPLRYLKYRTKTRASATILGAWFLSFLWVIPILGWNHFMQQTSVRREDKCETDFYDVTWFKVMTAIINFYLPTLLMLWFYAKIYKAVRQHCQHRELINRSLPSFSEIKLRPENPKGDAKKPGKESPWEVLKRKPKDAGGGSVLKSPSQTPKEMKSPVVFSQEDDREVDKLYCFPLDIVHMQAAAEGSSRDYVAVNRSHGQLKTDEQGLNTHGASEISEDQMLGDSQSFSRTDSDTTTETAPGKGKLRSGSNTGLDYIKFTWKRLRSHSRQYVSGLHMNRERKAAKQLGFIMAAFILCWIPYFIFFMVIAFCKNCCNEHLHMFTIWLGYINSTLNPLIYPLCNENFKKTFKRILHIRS
row,EC50 [µM],Structure (SMILES)
1,> 10,"CC(=O)c1ccc(N2CCN(c3ncnc4scc(C)c34)CC2)cc1 [Example 271, 1-[4-(4-{5-methylthieno[2,3-d]pyrimidin-4-yl}piperazin-1-yl)phenyl]ethan-1-one]"
2,> 10,"COCC(C)n1c(C)cc(C(=O)CSc2ncnc3sc(C)c(C)c23)c1C (stereo not shown) [Example 303, 2-(5,6-dimethylthieno[2,3-d]pyrimidin-4-ylthio)-1-(1-(1-methoxypropan-2-yl)-2,5-dimethyl-1H-pyrrol-3-yl)ethanone]"
3,> 10,"CCCC(Nc1ncnc2sccc12)c1ccccc1 (stereo not shown) [Example 307, N-(1-phenylbutyl)thieno[2,3-d]pyrimidin-4-amine]"
4,> 10,"Cc1csc2ncnc(N3CCCCC3CO)c12 (stereo not shown) [Example 206, (1-{5-methylthieno[2,3-d]pyrimidin-4-yl}piperidin-2-yl)methanol]"
5,> 10,"Cc1cccc(N2CCN(c3ncnc4scc(C)c34)CC2C)c1 (stereo not shown) [Example 255, 2-methyl-1-(3-methylphenyl)-4-{5-methylthieno[2,3-d]pyrimidin-4-yl}piperazine]"
6,> 10,"CCN(Cc1ccccc1)c1ncnc2scc(C)c12 [Example 217, N-benzyl-N-ethyl-5-methylthieno[2,3-d]pyrimidin-4-amine]"
7,> 10,"Cc1csc2ncnc(NCCCN3CCOCC3)c12 [Example 136, 5-methyl-N-[3-(morpholin-4-yl)propyl]thieno[2,3-d]pyrimidin-4-amine]"
8,> 10,"CCOc1ccccc1CNc1ncnc2scc(C)c12 [Example 146, N-[(2-ethoxyphenyl)methyl]-5-methylthieno[2,3-d]pyrimidin-4-amine]"
9,> 10,Clc1ccc(CCNc2ncnc3sc4c(c23)CCCC4)c(Cl)c1 [Example 313]
10,> 10,"Cc1csc2ncnc(NCCc3ccc4c(c3)OCO4)c12 [Example 175, N-[2-(2H-1,3-benzodioxol-5-yl)ethyl]-5-methylthieno[2,3-d]pyrimidin-4-amine]"
11,> 10,"Cc1sc2ncnc(N3CCC(C(=O)OCc4ccc(C#N)cc4)CC3)c2c1C [Example 306, 4-cyanobenzyl 1-(5,6-dimethylthieno[2,3-d]pyrimidin-4-yl)piperidine-4-carboxylate]"
12,> 10,"Cc1csc2ncnc(NCc3ccc(F)cc3F)c12 [Example 133, N-[(2,4-difluorophenyl)methyl]-5-methylthieno[2,3-d]pyrimidin-4-amine]"
13,> 10,"Cc1csc2ncnc(N3CCN(c4ccccc4C#N)CC3)c12 [Example 252, 2-(4-{5-methylthieno[2,3-d]pyrimidin-4-yl}piperazin-1-yl)benzonitrile]"
14,> 10,"CCOC(=O)N1CCC(Nc2ncnc3scc(C)c23)CC1 [Example 162, ethyl 4-({5-methylthieno[2,3-d]pyrimidin-4-yl}amino)piperidine-1-carboxylate]"
15,> 10,"Cc1csc2ncnc(NCc3ccc(C(F)(F)F)cc3)c12 [Example 164, 5-methyl-N-{[4-(trifluoromethyl)phenyl]methyl}thieno[2,3-d]pyrimidin-4-amine]"
16,> 10,"Cc1csc2ncnc(N[C@H](CO)Cc3ccccc3)c12 [Example 143, (2S)-2-({5-methylthieno[2,3-d]pyrimidin-4-yl}amino)-3-phenylpropan-1-ol]"
17,> 10,"Cc1csc2ncnc(N(CCO)Cc3ccccc3)c12 [Example 226, 2-[benzyl({5-methylthieno[2,3-d]pyrimidin-4-yl})amino]ethan-1-ol]"
18,> 10,"Cc1csc2ncnc(N3CCN(CCN4CCOCC4)CC3)c12 [Example 269, 4-[2-(4-{5-methylthieno[2,3-d]pyrimidin-4-yl}piperazin-1-yl)ethyl]morpholine]"
19,> 10,c1nc(NCc2ccc(CN3CCOCC3)cc2)c2c3c(sc2n1)CCC3 [Example 309]
20,> 10,"Cc1csc2ncnc(N3CCN(c4ccc([N+](=O)[O-])cc4)CC3)c12 [Example 273, 1-{5-methylthieno[2,3-d]pyrimidin-4-yl}-4-(4-nitrophenyl)piperazine]"
21,> 10,"COc1ccc(CNc2ncnc3scc(C)c23)cc1OC [Example 160, N-[(3,4-dimethoxyphenyl)methyl]-5-methylthieno[2,3-d]pyrimidin-4-amine]"
22,> 10,"Cc1csc2ncnc(NCc3ccccc3Cl)c12 [Example 130, N-[(2-chlorophenyl)methyl]-5-methylthieno[2,3-d]pyrimidin-4-amine]"
23,> 10,"Cc1csc2ncnc(NCc3cccc(C(F)(F)F)c3)c12 [Example 165, 5-methyl-N-{[3-(trifluoromethyl)phenyl]methyl}thieno[2,3-d]pyrimidin-4-amine]"
24,> 10,"Cc1csc2ncnc(N3CCN(c4ccc(C(F)(F)F)cc4)CC3)c12 [Example 287, 1-{5-methylthieno[2,3-d]pyrimidin-4-yl}-4-[4-(trifluoromethyl)phenyl]piperazine]"
25,> 10,"Cc1csc2ncnc(NCCCc3ccccc3)c12 [Example 117, 5-methyl-N-(3-phenylpropyl)thieno[2,3-d]pyrimidin-4-amine]"

# Further lines, the molecule ahead of its results:
row,Structure (SMILES),EC50 [µM]
1,"CCC(CO)Nc1ncnc2scc(C)c12 (stereo not shown) [Example 73, 2-({5-methylthieno[2,3-d]pyrimidin-4-yl}amino)butan-1-ol]",> 10
2,"Cc1csc2ncnc(NCC(C)c3ccccc3)c12 (stereo not shown) [Example 116, 5-methyl-N-(2-phenylpropyl)thieno[2,3-d]pyrimidin-4-amine]",> 10
3,"Cc1csc2ncnc(N3CCN(c4ccc(Cl)cc4)CC3)c12 [Example 6, 4-(4-(4-chlorophenyl)piperazin-1-yl)-5-methylthieno[2,3-d]pyrimidine]",> 10
4,"Cc1csc2ncnc(NC3CCC3)c12 [Example 58, N-cyclobutyl-5-methylthieno[2,3-d]pyrimidin-4-amine]",> 10
5,"Cc1csc2ncnc(N3CCN(C)CC3)c12 [Example 192, 1-methyl-4-{5-methylthieno[2,3-d]pyrimidin-4-yl}piperazine]",> 10
6,"Cc1csc2ncnc(NC(=O)Cc3ccc(Cl)cc3)c12 [Example 31, 2-(4-chlorophenyl)-N-(5-methylthieno[2,3-d]pyrimidin-4-yl)acetamide]",> 10
7,"Cc1csc2ncnc(NCc3cccc(F)c3)c12 [Example 102, N-[(3-fluorophenyl)methyl]-5-methylthieno[2,3-d]pyrimidin-4-amine]",> 10
8,"Cc1csc2ncnc(NC3CCCCC3)c12 [Example 76, N-cyclohexyl-5-methylthieno[2,3-d]pyrimidin-4-amine]",> 10
9,"Cc1csc2ncnc(NCC3CCCCC3)c12 [Example 89, N-(cyclohexylmethyl)-5-methylthieno[2,3-d]pyrimidin-4-amine]",> 10
10,"Cc1csc2ncnc(NC3CCC(C)CC3)c12 (stereo not shown) [Example 21, (4-Methylcyclohexyl)(5-methylthiopheno[3,2-e]pyrimidin-4-yl)amine]",> 10
11,"Cc1csc2ncnc(NCC3CCc4cc(Cl)ccc43)c12 (stereo not shown) [Example 30, N-((5-chloro-2,3-dihydro-1H-inden-1-yl)methyl)-5-methylthieno[2,3-d]pyrimidin-4-amine]",> 10
12,"COCC(C)Nc1ncnc2scc(C)c12 (stereo not shown) [Example 71, N-(1-methoxypropan-2-yl)-5-methylthieno[2,3-d]pyrimidin-4-amine]",> 10
13,"Cc1csc2ncnc(NC(C)CCCC(C)C)c12 (stereo not shown) [Example 108, 5-methyl-N-(6-methylheptan-2-yl)thieno[2,3-d]pyrimidin-4-amine]",> 10
14,"Cc1csc2ncnc(NC3CCCC(C)C3)c12 (stereo not shown) [Example 41, 5-methyl-N-(3-methylcyclohexyl)thieno[2,3-d]pyrimidin-4-amine]",> 10
15,Cc1cccc(CCNc2ncnc3scc(C)c23)c1 [Example 20],> 10
16,"Cc1csc2ncnc(NCc3ccccc3)c12 [Example 83, N-benzyl-5-methylthieno[2,3-d]pyrimidin-4-amine]",> 10
17,"CCOC(=O)C1CCN(c2ncnc3scc(C)c23)CC1 [Example 44, ethyl 1-{5-methylthieno[2,3-d]pyrimidin-4-yl}piperidine-4-carboxylate]",> 10
18,"Cc1csc2ncnc(NCc3ccccc3F)c12 [Example 104, N-[(2-fluorophenyl)methyl]-5-methylthieno[2,3-d]pyrimidin-4-amine]",> 10
